Source: patent publication US12357695B2, “Peptides and nanoparticles for intracellular delivery of molecules” (AADIGEN, LLC, priority 2019, dated 2025)
Square brackets hold non-standard residues; d marks the D form. Ends that are not written are not given here. Stearyl = stearyl group covalently linked to the N-terminus; Aun = NCCCCCCCCCCC(=O)O; βAla = NCCC(=O)O

Tests used:
293T cells = test: Cellular delivery of pGL4 plasmid DNA expressing Luciferase, luciferase expression at 72 hrs; format: cell-based; conditions: for reduction of efficiency / luciferase expression in the presence of serum: complexes incubated 3 hrs in 25% serum prior transfection; for reduction of efficiency / luciferase expression in the presence of serum / reduction of efficiency / luciferase expression in heparan sulfate: pGL4 plasmid; for reduction of efficiency / luciferase expression in heparan sulfate: complexes incubated 3 hrs with heparan sulfate prior transfection; for reduction of ADGN-100 efficiency by modification / luciferase expression: 0.15 μg pGL4 plasmid; for reduction of ADGN-100 efficiency by modification: absence of serum or heparan sulfate
Description: FIGS. 2A-2C show luciferase expression in 293T cells treated with ADGN-peptide/pGL4 plasmid DNA complexes. 293T cells cultured in 48 well plates were transfected with ADGN-peptide nanoparticles. ADGN-100, ADGN-106, ADGN-100RI, ADGN-106RI, ADGN-100 Stearyl, ADGN-Hydro1, ADGN-Hydro2, ADGN-Hydro3, ADGN-Hydro4, ADGN-Hydro5, and ADGN-Hydro6 containing 0.17 μg pGL4 plasmid DNA were formed in sterile water, diluted in sterile water containing 5% Sucrose. ADGN-peptide nanoparticles were evaluated prior (FIG. 2A) and after filtration with 0.45 μm PES filters (FIG. 2B). FIG. 2C impact of peGylated ADGN-100 on the transfection efficiency. pGL4 luc plasmid (0.15 μg) were associated to ADGN-100 solution containing 5 to 50% of ADGN-100-PEG or to ADGN-100PEG. ADGN/pGL4 plasmid DNA complexes were incubated for 3 hrs in the presence of either 25% serum or heparan sulfate prior transfection. Luciferase expression was monitored 72 hours post transfection and results were reported as RLU (luminescence):mg of protein.
Complex formation with plasmid DNA. The following protocols were used for the transfection of 2-5 106 Cells or Cells at confluency of about 70-80% cultured in 24 well plates. ADGN peptide/plasmid DNA pGL4 particles were prepared at a 20:1 molar ratio of ADGN-Peptide/pGL4. using (0.2 μg). PGL4 plasmid (0.15 μg) was diluted in 20 μl of sterile water (GIBCO) at room temperature. 10 μl Final Peptide Solution was added to obtain a total volume of 20 μl. The volume was adjusted to 50 μl with sterile water and was mixed gently with vortex 1 min low speed and incubated 30 min at room temperature. Then the volume was made up to 100 μl by adding sterile water containing 5% sucrose, and the solution was mixed gently with vortex 1 min low speed and incubate 5 min at 37° C. and then was proceeded to cell transfection.
(§1) Transfection protocol. Protocol is reported for 24 well plate format. Cells were cultured in Dulbecco's Modified Eagle's Medium (DMEM), supplemented with 2 mM glutamine, 1% antibiotics (streptomycin 10,000 μg/mL, penicillin, 10,000 IU/mL) and 10% (w/v) foetal calf serum (FCS), at 37° C. in a humidified atmosphere containing 5% CO2. 24 well plates seeded with 150,000 cells the day prior to transfection were grown to 50-60% confluence and set up to be at about 70% confluences at the time of transfection. Before transfection, cells were washed twice with DMEM. Cells were then overlaid with 0.1 ml of ADGN-peptide/cargo complex solution containing 0.25 μg mRNA, 0.15 μg plasmid DNA or 10-25 nM siRNA, mixed gently, and incubated for 10 min at 37° C. 0.2 mL of fresh DMEM, were added and cells were incubated for 20 min at 37° C. 1 mL of complete DMEM containing 15% FCS were then added in order to reach a final FCS concentration of 10%, without removing the overlay of ADGN-peptide/cargo complexes. Cells were returned to the incubator (37° C., 5% CO2) and 72 hrs post transfection.
ADGN-peptides were evaluated for cellular delivery of pGL4 plasmid DNA expressing Luciferase in 293T cells. Luc pGL4 plasmid (0.15 μg) in sterile water (GIBCO) were mixed with ADGN-100, ADGN-100RI, ADGN-106, ADGN-106RI, ADGN-100 Stearyl, ADGN-100Hydro1, ADGN-100Hydro2, ADGN-100Hydro4, ADGN-100Hydro3, ADGN-100Hydro5 and ADGN-100Hydro6. ADGN-peptide/mRNA complexes were filtered with 0.45 μm PES filter. In order to evaluate the stability of the ADGN/pGL4 plasmid complexes in high serum and cell culture conditions, the complexes were incubated for 3 hrs in the presence of either 25% serum or heparan sulfate prior transfection, then 293T cells were transfected and Luciferase expression was monitored at 72 hrs.

A375/Luc cells = test: Cellular delivery of siRNA targeting Luciferase, luciferase silencing at 48 hrs; format: cell-based; conditions: for reduction of ADGN-100 or ADGN-106 efficiency by modification / reduction of level of luciferase (siRNA mediated silencing): absence of serum treatment; for reduction of efficiency / siRNA mediated luciferase silencing in the presence of serum: complexes incubated 3 hrs in 25% serum; for reduction of luciferase expression level: presence of serum
Description: FIGS. 3A-3C show luciferase expression in A375/Luc cells treated with ADGN-peptide/siRNA complexes. A375/Luc cells cultured in 48 well plates were transfected with ADGN-peptide nanoparticles. ADGN-100, ADGN-106, ADGN-100RI, ADGN-106RI, ADGN-100 Stearyl, ADGN-Hydro1, ADGN-Hydro2, ADGN-Hydro3, ADGN-Hydro4, ADGN-Hydro5, ADGN-Hydro6 and ADGN-peptide/ADGN-100PEG 10% nanoparticles containing 10 nM or 25 nM siRNA were formed in sterile water, diluted in sterile water containing 5% Sucrose and filtered with 0.45 μm PES filters. FIG. 3C impact of peGylated ADGN-100 on the transfection efficiency. siRNA Luc (10 nM and 25 nM) were associated to ADGN-100 solution containing 5 to 50% of ADGN-100-PEG or to ADGN-100PEG. ADGN/siRNA complexes were incubated for 3 hrs in the presence of 25% serum prior transfection. Luciferase expression was monitored 48 hours post transfection and results were reported as RLU (luminescence):mg of protein.
Complex formation with siRNA. The following protocols were used for the transfection of 2-5 106 Cells or Cells at confluency of about 70-80% cultured in 24 well plates. ADGN peptide/siRNA Luc particles were prepared at a 20:1 molar ratio of ADGN-Peptide/pGL4. using 20 nM siRNA. The siRNA duplex (10 and 25 nM) was diluted in 20 μl of sterile water (GIBCO) at room temperature. 1.5 or 3 μl of a Final Peptide Solution (55 μM) was added to obtain a total volume of 20 μl. The volume was adjusted to 50 μl with sterile water and was mixed gently with vortex 1 min low speed and incubated 30 min at room temperature. Then the volume was made up to 100 μl by adding sterile water containing 5% sucrose, and the solution was mixed gently with vortex 1 min low speed and incubate 5 min at 37° C. and then was proceeded to cell transfection.
as §1
ADGN-peptides were evaluated for cellular delivery of siRNA duplex targeting Luciferase in A375/Luc cells. siRNA targeting luciferase (10 and 25 nM) in sterile water (GIBCO) were mixed with ADGN-100, ADGN-100RI, ADGN-106, ADGN-106RI, ADGN-100 Stearyl, ADGN-100Hydro1, ADGN-100Hydro2, ADGN-100Hydro4, ADGN-100Hydro3, ADGN-100Hydro5 and ADGN-100Hydro6. ADGN-peptide/siRNA complexes were filtered with 0.45 μm PES filter. In order to evaluate the stability of the ADGN/siRNA complexes in high serum conditions, the complexes were incubated for 3 hrs in the presence of 25% serum, then A375/Luc cells were transfected and Luciferase expression was monitored at 48 hrs.

| Substance | reduction of efficiency / luciferase expression in the presence of serum (293T cells) | reduction of efficiency / luciferase expression in heparan sulfate (293T cells) | reduction of ADGN-100 efficiency by modification (293T cells) | reduction of ADGN-100 or ADGN-106 efficiency by modification (A375/Luc cells) | reduction of efficiency / siRNA mediated luciferase silencing in the presence of serum (A375/Luc cells) | luciferase expression (293T cells) | reduction of luciferase expression level (A375/Luc cells; 10 nM siRNA) [%] | reduction of luciferase expression level (A375/Luc cells; 25 nM siRNA) [%] | reduction of level of luciferase (siRNA mediated silencing) (A375/Luc cells; 10 nM siRNA) [%] | reduction of level of luciferase (siRNA mediated silencing) (A375/Luc cells; 25 nM siRNA) [%] |
| --- | --- | --- | --- | --- | --- | --- | --- | --- | --- | --- |
| Ac-GYVS-(G)4-KWRSALWRWRLWRVRSWSR-NH2 (Ac-GYVSGGGGKWRSALWRWRLWRVRSWSR-NH2) [ADGN-100 hydro-2] | do not significantly improved transfection | do not significantly improved transfection | – | – | – | – | – | – | – | – |
| Ac-GYVS-Aun-KWRSALWRWRLWRVRSWSR-NH2 (Ac-GYVS[Aun]KWRSALWRWRLWRVRSWSR-NH2; SMILES CC(=O)NCC(=O)N[C@@H](Cc1ccc(O)cc1)C(=O)N[C@H](C(=O)N[C@@H](CO)C(=O)NCCCCCCCCCCC(=O)N[C@@H](CCCCN)C(=O)N[C@@H](Cc1c[nH]c2ccccc12)C(=O)N[C@@H](CCCNC(=N)N)C(=O)N[C@@H](CO)C(=O)N[C@@H](C)C(=O)N[C@@H](CC(C)C)C(=O)N[C@@H](Cc1c[nH]c2ccccc12)C(=O)N[C@@H](CCCNC(=N)N)C(=O)N[C@@H](Cc1c[nH]c2ccccc12)C(=O)N[C@@H](CCCNC(=N)N)C(=O)N[C@@H](CC(C)C)C(=O)N[C@@H](Cc1c[nH]c2ccccc12)C(=O)N[C@@H](CCCNC(=N)N)C(=O)N[C@H](C(=O)N[C@@H](CCCNC(=N)N)C(=O)N[C@@H](CO)C(=O)N[C@@H](Cc1c[nH]c2ccccc12)C(=O)N[C@@H](CO)C(=O)N[C@@H](CCCNC(=N)N)C(N)=O)C(C)C)C(C)C) [ADGN-100 hydro-6] | – | – | do not affected | do not affected | 20% | – | – | – | – | – |
| Stearyl-βA-KWRSALWRWRLWRVRSWSR-NH2 (Stearyl-[βAla]KWRSALWRWRLWRVRSWSR-NH2; not fully specified; printed as Stearyl-βA-KWRSALWRWRLWRVRSWSR-NH2) [ADGN-100 Stearyl] | – | – | do not affected | do not affected | 20% | – | – | – | – | – |
| akwllrwlsrwlrwlarwlr ([dA][dK][dW][dL][dL][dR][dW][dL][dS][dR][dW][dL][dR][dW][dL][dA][dR][dW][dL][dR]; also: retro-inverso) [ADGN-106-RI] | – | – | – | do not affected | not affected by the presence of serum | poor luciferase expression | 77 | 95 | – | – |
| rswsrvrwlrwrwgasrwk ([dR][dS][dW][dS][dR][dV][dR][dW][dL][dR][dW][dR][dW]G[dA][dS][dR][dW][dK]; also: retro-inverso) [ADGN-100-RI] | 25% | less than 10% | do not affected | do not affected | not affected by the presence of serum | – | 77 | 95 | – | – |
| βAKWRSAGWRWRLW RVRSWSR (AKWRSAGWRWRLWRVRSWSR; N-terminal beta-alanine; VARIANT 1 beta-A) [ADGN-100] | 90% | 50% | – | – | 90% | high level of luciferase expression | – | – | 78 | 93 |
| βALWRALWRLWRSLWRLLWKA ([βAla]LWRALWRLWRSLWRLLWKA) [ADGN-106] | – | – | – | – | 90% | poor luciferase expression | – | – | 78 | 93 |
